# Source: patent publication US20260138958A1, “SUBSTITUTED N-PHENYLURACILS AND SALTS THEREOF, AND USE THEREOF AS HERBICIDAL ACTIVE SUBSTANCES” (Bayer Aktiengesellschaft, priority 2022, published 2026)
# Key:
# Assay type in all cases: in vivo
# [1] = test system: Abutilon theophrasti (ABUTH); assay: Post-emergence herbicidal action, greenhouse pot test
# Outline: (§1)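 Visual rating, about 3 weeks post-spray, relative to untreated plants: 100% activity means plants died, 0% means no difference from control. Plants in sandy loam were treated at one-leaf stage (2–3 weeks after sowing) with compound as WP or EC in water, 0.5% additive, 600 l/ha.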
# [2] = test system: Alopecurus myosuroides (ALOMY); assay: as above; settings: 20 g/ha
# Outline: as §1
# [3] = test system: Amaranthus retroflexus (AMARE); assay: as above
# Outline: as §1
# Bassia scoparia (KCHSC) = assay: as above
# Outline: as §1
# [4] = test system: Digitaria sanguinalis (DIGSA); assay: as above
# Outline: as §1
# [5] = test system: Echinochloa crus-galli (ECHCG); assay: as above
# Outline: as §1
# Lolium rigidum (LOLRI) = assay: as above
# Outline: as §1
# [6] = test system: Pharbitis purpurea (PHBPU); assay: as above
# Outline: as §1
# [7] = test system: Polygonum convolvulus (POLCO); assay: as above
# Outline: as §1
# Setaria viridis (SETVI) = assay: as above
# Outline: as §1
# [8] = test system: Tripleurospermum inodorum (MATIN); assay: as above; settings: 20 g/ha
# Outline: as §1
# Veronica persica (VERPE) = assay: as above
# Outline: as §1
# Viola tricolor (VIOTR) = assay: as above
# Outline: as §1
# Glycine max (GLXMA) = assay: Post-emergence crop plant compatibility, greenhouse pot test
# Outline: (§2)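 Visual % damage scores were taken roughly 3 weeks after treatment, relative to untreated plants, where 100% means plants died and 0% means no difference. Plants received aqueous sprays (WP or EC, 0.5% additive, 600 l/ha) on green parts at the one-leaf stage, 2–3 weeks after sowing.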
# [9] = test system: Triticum aestivum (TRZAS); assay: as above
# Outline: as §2
# Oryza sativa (ORYSA) = assay: as above; settings: Oryza sativa, in vivo
# Outline: as §2
# Zea mays (ZEAMX) = assay: as above; settings: Zea mays, in vivo
# Outline: as §2
# [10] = crop plant, post-emergence, 1.25 g/ha
compound,measurement,setting,value
CC(OC(=O)COc1ccccc1Oc1cc(-n2c(=O)cc(C(F)(F)F)n(C)c2=O)c(F)cc1Cl)C1CCCC1 (centres unmarked) [I.7-13],Post-emergence effect at 1.25 g/ha against ABUTH in %,[1]; 1.25 g/ha,80%
same,Post-emergence effect at 5 g/ha against ABUTH in %,[1]; 5 g/ha,100%
same,Post-emergence effect at 20 g/ha against ABUTH in %,[1]; 20 g/ha,100%
same,Post-emergence effect at 20 g/ha against ALOMY in %,[2],80%
same,Post-emergence effect at 1.25 g/ha against AMARE in %,[3]; 1.25 g/ha,100%
same,Post-emergence effect at 5 g/ha against AMARE in %,[3]; 5 g/ha,100%
same,Post-emergence effect at 20 g/ha against AMARE in %,[3]; 20 g/ha,100%
same,Post-emergence effect at 5 g/ha against KCHSC in %,Bassia scoparia (KCHSC); 5 g/ha,100%
same,Post-emergence effect at 20 g/ha against KCHSC in %,Bassia scoparia (KCHSC); 20 g/ha,100%
same,Post-emergence effect at 5 g/ha against DIGSA in %,[4]; 5 g/ha,100%
same,Post-emergence effect at 20 g/ha against DIGSA in %,[4]; 20 g/ha,100%
same,Post-emergence effect at 1.25 g/ha against ECHCG in %,[5]; 1.25 g/ha,80%
same,Post-emergence effect at 5 g/ha against ECHCG in %,[5]; 5 g/ha,90%
same,Post-emergence effect at 20 g/ha against ECHCG in %,[5]; 20 g/ha,100%
same,Post-emergence effect at 20 g/ha against LOLRI in %,Lolium rigidum (LOLRI),80%
same,Post-emergence effect at 1.25 g/ha against PHBPU in %,[6]; 1.25 g/ha,100%
same,Post-emergence effect at 5 g/ha against PHBPU in %,[6]; 5 g/ha,100%
same,Post-emergence effect at 20 g/ha against PHBPU in %,[6]; 20 g/ha,100%
same,Post-emergence effect at 5 g/ha against POLCO in %,[7]; 5 g/ha,100%
same,Post-emergence effect at 20 g/ha against POLCO in %,[7]; 20 g/ha,100%
same,Post-emergence effect at 1.25 g/ha against SETVI in %,Setaria viridis (SETVI); 1.25 g/ha,100%
same,Post-emergence effect at 5 g/ha against SETVI in %,Setaria viridis (SETVI); 5 g/ha,100%
same,Post-emergence effect at 20 g/ha against SETVI in %,Setaria viridis (SETVI); 20 g/ha,100%
same,Post-emergence effect at 20 g/ha against MATIN in %,[8],80%
same,Post-emergence effect at 1.25 g/ha against VERPE in %,Veronica persica (VERPE); 1.25 g/ha,100%
same,Post-emergence effect at 5 g/ha against VERPE in %,Veronica persica (VERPE); 5 g/ha,100%
same,Post-emergence effect at 20 g/ha against VERPE in %,Veronica persica (VERPE); 20 g/ha,100%
same,Post-emergence effect at 1.25 g/ha against VIOTR in %,Viola tricolor (VIOTR); 1.25 g/ha,90%
same,Post-emergence effect at 5 g/ha against VIOTR in %,Viola tricolor (VIOTR); 5 g/ha,100%
same,Post-emergence effect at 20 g/ha against VIOTR in %,Viola tricolor (VIOTR); 20 g/ha,100%
same,Post-emergence effect at 1.25 g/ha against GLXMA in %,Glycine max (GLXMA); [10],20%
same,Post-emergence effect at 1.25 g/ha against TRZAS in %,[9]; [10],20%
"Cn1c(C(F)(F)F)cc(=O)n(-c2cc(Oc3ccccc3OCC(=O)OCC3CC3)c(Br)cc2F)c1=O [I.8-1, Cyclopropylmethyl (2-{2-bromo-4-fluoro-5-[3-methyl-2,6-dioxo-4-(trifluoromethyl)-3,6-dihydropyrimidin-1(2H)-yl]phenoxy}phenoxy)acetate]",pest or weed control at 5 g/ha,"[1]; Abutilon theophrasti, 504 h, 5 g/ha, read-out: Post-emergence effect at 5 g/ha against ABUTH in %",100%
same,pest or weed control at 20 g/ha,"[1]; Abutilon theophrasti, 504 h, 20 g/ha, read-out: Post-emergence effect at 20 g/ha against ABUTH in %",100%
same,pest or weed control at 20 g/ha,"[2]; Alopecurus myosuroides, 504 h, read-out: Post-emergence effect at 20 g/ha against ALOMY in %",100%
same,pest or weed control at 1.25 g/ha,"[3]; Amaranthus retroflexus, 504 h, 1.25 g/ha, read-out: Post-emergence effect at 1.25 g/ha against AMARE in %",100%
same,pest or weed control at 5 g/ha,"[3]; Amaranthus retroflexus, 504 h, 5 g/ha, read-out: Post-emergence effect at 5 g/ha against AMARE in %",100%
same,pest or weed control at 20 g/ha,"[3]; Amaranthus retroflexus, 504 h, 20 g/ha, read-out: Post-emergence effect at 20 g/ha against AMARE in %",100%
same,pest or weed control at 20 g/ha,"[5]; Echinochloa crus-galli, 504 h, 20 g/ha, read-out: Post-emergence effect at 20 g/ha against ECHCG in %",100%
same,pest or weed control at 5 g/ha,"[6]; Ipomoea purpurea, 504 h, 5 g/ha, read-out: Post-emergence effect at 5 g/ha against PHBPU in %",80%
same,pest or weed control at 20 g/ha,"[6]; Ipomoea purpurea, 504 h, 20 g/ha, read-out: Post-emergence effect at 20 g/ha against PHBPU in %",100%
same,pest or weed control at 5 g/ha,"[7]; Fallopia convolvulus, 504 h, 5 g/ha, read-out: Post-emergence effect at 5 g/ha against POLCO in %",100%
same,pest or weed control at 20 g/ha,"[7]; Fallopia convolvulus, 504 h, 20 g/ha, read-out: Post-emergence effect at 20 g/ha against POLCO in %",100%
same,pest or weed control at 5 g/ha,"Setaria viridis (SETVI); Setaria viridis, 504 h, 5 g/ha, read-out: Post-emergence effect at 5 g/ha against SETVI in %",100%
same,pest or weed control at 20 g/ha,"Setaria viridis (SETVI); Setaria viridis, 504 h, 20 g/ha, read-out: Post-emergence effect at 20 g/ha against SETVI in %",100%
same,pest or weed control at 20 g/ha,"[8]; Tripleurospermum inodorum, 504 h, read-out: Post-emergence effect at 20 g/ha against MATIN in %",100%
same,pest or weed control at 5 g/ha,"Veronica persica (VERPE); Veronica persica, 504 h, 5 g/ha, read-out: Post-emergence effect at 5 g/ha against VERPE in %",100%
same,pest or weed control at 20 g/ha,"Veronica persica (VERPE); Veronica persica, 504 h, 20 g/ha, read-out: Post-emergence effect at 20 g/ha against VERPE in %",100%
same,pest or weed control at 20 g/ha,"Viola tricolor (VIOTR); Viola tricolor, 504 h, 20 g/ha, read-out: Post-emergence effect at 20 g/ha against VIOTR in %",100%
same,Post-emergence effect at 1.25 g/ha against GLXMA in %,"Glycine max (GLXMA); Glycine max, in vivo",0%
same,Post-emergence effect at 1.25 g/ha against ORYSA in %,Oryza sativa (ORYSA),0%
same,Post-emergence effect at 5 g/ha against ORYSA in %,Oryza sativa (ORYSA),0%
same,Post-emergence effect at 20 g/ha against ORYSA in %,Oryza sativa (ORYSA),20%
same,Post-emergence effect at 1.25 g/ha against TRZAS in %,"[9]; Triticum aestivum, in vivo",0%
same,Post-emergence effect at 20 g/ha against TRZAS in %,"[9]; Triticum aestivum, in vivo",0%
same,Post-emergence effect at 1.25 g/ha against ZEAMX in %,Zea mays (ZEAMX),0%
